Values after ≈ are worked out from the molar mass of the structure shown. Positions of bridges follow the written chain, without caps; N, C: chain ends. Non-standard residues stand in square brackets, D forms with d. Residues, ends and D or L forms follow the SMILES beside them. Phe(4-CF3) = N[C@@H](Cc1ccc(C(F)(F)F)cc1)C(=O)O; Phe(4-F) = N[C@@H](Cc1ccc(F)cc1)C(=O)O; S5 = C=CCCC[C@](C)(N)C(=O)O; Dab = NCC[C@H](N)C(=O)O
Assays:
P. aeruginosa = type: cell-based, Pseudomonas aeruginosa
Outline: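 Broth microdilution adapted from CLSI in MHB or cation-adjusted MHB; log-phase P. aeruginosa at 5×10^5 CFU/ml final with serially diluted stapled peptides. Incubated 20-24 h at 37 °C; MIC is the lowest concentration without visible growth.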

E. coli = type: cell-based, Escherichia coli
Outline: (§1)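 Broth microdilution adapted from CLSI in Mueller-Hinton broth or cation-adjusted MHB. Overnight 37 °C cultures were regrown 3-4 h, then added to serially diluted peptide at a final 5×10^5 CFU/ml. After 20-24 h at 37 °C, MIC was the lowest peptide concentration with no visible growth.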

in vitro [1] = type: cell-based; details: human
Procedure: Cell culture: RPTEC were maintained in MEM media supplemented with growth factors. HEPG2 cell line was maintained in Eagle's Minimum Essential Medium (EMEM) supplemented with fetal bovine serum to a final concentration of 10%.
90 minute cytotoxicity assay: Cells were plated in a 96-well format, and after overnight incubation, media was replaced with fresh media. Serial dilutions of StAMPs from a 5 mg/mL water stock, or vehicle, were added to the cells in a final volume of 100 μl. After incubating at 37° C. for 90 min, 50 μl of cell culture media was transferred to a clear 96-well plate, incubated with 50 μl of lactate dehydrogenase (LDH) assay reagent for 10 min, and absorbance measured at 490 nm on a microplate reader.
Renal toxicity was measured after 90 minutes of incubation, while liver toxicity was measured after 48 hours of incubation with StAMPs. N/A=not tested. The following apply to all peptides (i.e., StAMPs) listed in Tables A-C: Crosslinks (X^1—X^2 and X^3—X^4): (alk); N-terminus: —NH2; C-terminus: amidated with —NH2; counterion: Cl^−. The following apply to all peptides (i.e., StAMPs) listed in Table D: Crosslinks (X^1—X^2 and X^3—X^4): (alk); N-terminus: —NH2; C-terminus: as shown in table; counterion: Cl^−.
StAMP Micelle Formulation: DSPE-MPEG(2000) was suspended in buffered saline at 50-100 mg/mL overnight. StAMP stock solutions at 5-20 mg/mL in buffered saline were prepared and equal volumes of micelle and StAMP stock solution were mixed at the desired StAMP:Lipid ratio. Suspensions were allowed to sit for 5-10 minutes at room temperature before being used in in vitro and in vivo assays.
In Table E, the StAMP is StAMP 4 (Table A) and “Lipid”=DSPE-MPEG(2000).

A. baumannii = type: cell-based, Acinetobacter baumannii
Outline: as §1

in vitro [2] = type: cell-based; details: human, Inhibitory Concentration at 50% Cytotoxicity (IC50) Human Liver Cells (HepG2)
Outline: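 HepG2 cells in EMEM with 10% FBS, allowed 4 h to attach, then exposed to serial dilutions of StAMPs (from a 5 mg/mL water stock) or vehicle. After 48 h at 37 °C, viability read by CellTiter-Glo luminescence.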

K. pneumoniae = type: cell-based, Klebsiella pneumoniae
Outline: as §1

S. aureus = type: cell-based, Staphylococcus aureus
Outline: as §1

SMILES: CC(C)[C@@H]1NC(=O)[C@@](C)(NC(=O)[C@H](C)NC(=O)[C@H](CCCCN)NC(=O)CNC(=O)[C@H](Cc2ccccc2)NC(=O)[C@H](CCCCN)NC(=O)[C@H](CCCCN)NC(=O)[C@H](CCCCN)NC(=O)[C@H](CC(N)=O)NC(=O)[C@H](Cc2c[nH]cn2)NC(=O)[C@]2(C)CCCC=CCCC[C@](C)(NC(=O)CN)C(=O)NCC(=O)N[C@@H](CCCCN)C(=O)N[C@@H](Cc3ccccc3)C(=O)N2)CCCC=CCCC[C@@](C)(C(=O)N[C@@H](C)C(=O)N[C@@H](CCCCN)C(=O)N[C@@H](CCCCN)C(N)=O)NC(=O)[C@H](CCC(=O)O)NC(=O)CNC1=O [compound 6] (H-G[S5]GKF[S5]HNKKKFGKA[S5]VGE[S5]AKK-NH2; staple 2-6, 16-20)
- Minimum Inhibitory Concentration (MIC) P. aeruginosa (P. aeruginosa): 8 µg/mL
- Minimum Inhibitory Concentration (MIC) E. coli (E. coli): 4 µg/mL
- IC50 at 90 min (in vitro [1]): > 200 µg/mL
- Minimum Inhibitory Concentration (MIC) A. baumannii (A. baumannii): 4 µg/mL
- IC50 at 48 hours (in vitro [2]): > 200 µg/mL
- Minimum Inhibitory Concentration (MIC) K. pneumoniae (K. pneumoniae): >64 µg/mL
- Minimum Inhibitory Concentration (MIC) S. aureus (S. aureus): >64 µg/mL

SMILES: CC(C)[C@@H]1NC(=O)[C@H](C(C)C)NC(=O)[C@@](C)(NC(=O)[C@H](C)NC(=O)[C@H](CCCCN)NC(=O)CNC(=O)[C@H](Cc2ccc(C(F)(F)F)cc2)NC(=O)[C@H](CCCCN)NC(=O)[C@H](CCCCN)NC(=O)[C@H](CCCCN)NC(=O)[C@H](CCCCN)NC(=O)[C@H](Cc2c[nH]cn2)NC(=O)[C@]2(C)CCCC=CCCC[C@](C)(NC(=O)CN)C(=O)NCC(=O)N[C@@H](CCCCN)C(=O)N[C@@H](Cc3ccc(C(F)(F)F)cc3)C(=O)N2)CCCC=CCCC[C@@](C)(C(=O)N[C@@H](C)C(=O)N[C@@H](CCCCN)C(=O)N[C@@H](CCCCN)C(N)=O)NC(=O)[C@H](CCC(=O)O)NC1=O [compound 30] (H-G[S5]GK[Phe(4-CF3)][S5]HKKKK[Phe(4-CF3)]GKA[S5]VVE[S5]AKK-NH2; staple 2-6, 16-20)
- Minimum Inhibitory Concentration (MIC) P. aeruginosa (P. aeruginosa): 4 µg/mL
- Minimum Inhibitory Concentration (MIC) E. coli (E. coli): 2 µg/mL
- IC50 at 90 min (in vitro [1]): 17 µg/mL (≈ 6.18 µM)
- Minimum Inhibitory Concentration (MIC) A. baumannii (A. baumannii): 2 µg/mL
- Minimum Inhibitory Concentration (MIC) K. pneumoniae (K. pneumoniae): 4 µg/mL
- Minimum Inhibitory Concentration (MIC) S. aureus (S. aureus): 32 µg/mL

SMILES: CC(C)[C@@H]1NC(=O)[C@@](C)(NC(=O)[C@H](C)NC(=O)[C@H](CCCCN)NC(=O)CNC(=O)[C@H](Cc2ccccc2)NC(=O)[C@H](CCCCN)NC(=O)[C@H](CCCCN)NC(=O)[C@H](CCCCN)NC(=O)[C@H](CCCCN)NC(=O)[C@H](CCCCN)NC(=O)[C@]2(C)CCCC=CCCC[C@](C)(NC(=O)CN)C(=O)NCC(=O)N[C@@H](CCN)C(=O)N[C@@H](Cc3ccccc3)C(=O)N2)CCCC=CCCC[C@@](C)(C(=O)N[C@@H](C)C(=O)N[C@@H](CCCCN)C(=O)N[C@@H](CCCCN)C(N)=O)NC(=O)[C@H](CCC(=O)O)NC(=O)CNC1=O [compound 37] (H-G[S5]G[Dab]F[S5]KKKKKFGKA[S5]VGE[S5]AKK-NH2; staple 2-6, 16-20)
- Minimum Inhibitory Concentration (MIC) P. aeruginosa (P. aeruginosa): 2 µg/mL
- Minimum Inhibitory Concentration (MIC) E. coli (E. coli): 2 µg/mL
- IC50 at 90 min (in vitro [1]): 113 µg/mL (≈ 44.6 µM)
- Minimum Inhibitory Concentration (MIC) A. baumannii (A. baumannii): 2 µg/mL
- Minimum Inhibitory Concentration (MIC) K. pneumoniae (K. pneumoniae): 4 µg/mL
- Minimum Inhibitory Concentration (MIC) S. aureus (S. aureus): >64 µg/mL

SMILES: CC(C)[C@@H]1NC(=O)[C@H](C(C)C)NC(=O)[C@@](C)(NC(=O)[C@H](C)NC(=O)[C@H](CCCCN)NC(=O)CNC(=O)[C@H](Cc2ccc(F)cc2)NC(=O)[C@H](CCCCN)NC(=O)[C@H](CCCCN)NC(=O)[C@H](CCCCN)NC(=O)[C@H](CCCCN)NC(=O)[C@H](Cc2c[nH]cn2)NC(=O)[C@]2(C)CCCC=CCCC[C@](C)(NC(=O)CN)C(=O)NCC(=O)N[C@@H](CCCCN)C(=O)N[C@@H](Cc3ccc(F)cc3)C(=O)N2)CCCC=CCCC[C@@](C)(C(=O)N[C@@H](C)C(=O)N[C@@H](CCCCN)C(=O)N[C@@H](CCCCN)C(N)=O)NC(=O)[C@H](CCC(=O)O)NC1=O [compound 29] (H-G[S5]GK[Phe(4-F)][S5]HKKKK[Phe(4-F)]GKA[S5]VVE[S5]AKK-NH2; staple 2-6, 16-20)
- Minimum Inhibitory Concentration (MIC) P. aeruginosa (P. aeruginosa): 4 µg/mL
- Minimum Inhibitory Concentration (MIC) E. coli (E. coli): 2 µg/mL
- IC50 at 90 min (in vitro [1]): 86 µg/mL (≈ 32.4 µM)
- Minimum Inhibitory Concentration (MIC) A. baumannii (A. baumannii): 2 µg/mL
- Minimum Inhibitory Concentration (MIC) K. pneumoniae (K. pneumoniae): 4 µg/mL
- Minimum Inhibitory Concentration (MIC) S. aureus (S. aureus): >64 µg/mL

SMILES: CC(C)[C@@H]1NC(=O)[C@@](C)(NC(=O)[C@H](C)NC(=O)[C@H](CCCCN)NC(=O)CNC(=O)[C@H](Cc2ccccc2)NC(=O)[C@H](CCCCN)NC(=O)[C@H](CCCCN)NC(=O)[C@H](CCCCN)NC(=O)[C@H](CCN)NC(=O)[C@H](CCCCN)NC(=O)[C@]2(C)CCCC=CCCC[C@](C)(NC(=O)CN)C(=O)NCC(=O)N[C@@H](CCCCN)C(=O)N[C@@H](Cc3ccccc3)C(=O)N2)CCCC=CCCC[C@@](C)(C(=O)N[C@@H](C)C(=O)N[C@@H](CCCCN)C(=O)N[C@@H](CCCCN)C(N)=O)NC(=O)[C@H](CCC(=O)O)NC(=O)CNC1=O [compound 38] (H-G[S5]GKF[S5]K[Dab]KKKFGKA[S5]VGE[S5]AKK-NH2; staple 2-6, 16-20)
- Minimum Inhibitory Concentration (MIC) P. aeruginosa (P. aeruginosa): 2 µg/mL
- Minimum Inhibitory Concentration (MIC) E. coli (E. coli): 2 µg/mL
- IC50 at 90 min (in vitro [1]): 117 µg/mL (≈ 46.1 µM)
- Minimum Inhibitory Concentration (MIC) A. baumannii (A. baumannii): 2 µg/mL
- Minimum Inhibitory Concentration (MIC) K. pneumoniae (K. pneumoniae): 4 µg/mL
- Minimum Inhibitory Concentration (MIC) S. aureus (S. aureus): >64 µg/mL

SMILES: CC(C)[C@@H]1NC(=O)[C@H](C(C)C)NC(=O)[C@@](C)(NC(=O)[C@H](C)NC(=O)[C@H](CCCCN)NC(=O)CNC(=O)[C@@H](Cc2ccccc2)NC(=O)[C@H](CCCCN)NC(=O)[C@H](CCCCN)NC(=O)[C@H](CCCCN)NC(=O)[C@H](CCCCN)NC(=O)[C@H](Cc2c[nH]cn2)NC(=O)[C@]2(C)CCCC=CCCC[C@](C)(NC(=O)CN)C(=O)NCC(=O)N[C@@H](CCCCN)C(=O)N[C@H](Cc3ccccc3)C(=O)N2)CCCC=CCCC[C@@](C)(C(=O)N[C@@H](C)C(=O)N[C@@H](CCCCN)C(=O)N[C@@H](CCCCN)C(N)=O)NC(=O)[C@H](CCC(=O)O)NC1=O [compound 28] (H-G[S5]GK[dF][S5]HKKKK[dF]GKA[S5]VVE[S5]AKK-NH2; staple 2-6, 16-20)
- Minimum Inhibitory Concentration (MIC) P. aeruginosa (P. aeruginosa): 64 µg/mL
- Minimum Inhibitory Concentration (MIC) E. coli (E. coli): 64 µg/mL
- Minimum Inhibitory Concentration (MIC) A. baumannii (A. baumannii): 16 µg/mL
- IC50 at 48 hours (in vitro [2]): 201 µg/mL (≈ 76.9 µM)
- Minimum Inhibitory Concentration (MIC) K. pneumoniae (K. pneumoniae): >64 µg/mL
- Minimum Inhibitory Concentration (MIC) S. aureus (S. aureus): >64 µg/mL

SMILES: CC(C)[C@@H]1NC(=O)[C@@](C)(NC(=O)[C@H](C)NC(=O)[C@H](CCCCN)NC(=O)[C@H](CO)NC(=O)[C@H](Cc2ccccc2)NC(=O)[C@H](CCCCN)NC(=O)[C@H](CCCCN)NC(=O)[C@H](CCCCN)NC(=O)[C@H](CCCCN)NC(=O)[C@H](CCCCN)NC(=O)[C@]2(C)CCCC=CCCC[C@](C)(NC(=O)CN)C(=O)NCC(=O)N[C@@H](CCCCN)C(=O)N[C@@H](Cc3ccccc3)C(=O)N2)CCCC=CCCC[C@@](C)(C(=O)N[C@@H](C)C(=O)N[C@@H](CCCCN)C(=O)N[C@@H](CCCCN)C(=O)NCC(=O)NCC(=O)N[C@@H](CCC(=O)O)C(N)=O)NC(=O)[C@H](CCC(=O)O)NC(=O)CNC1=O [compound 91] (H-G[S5]GKF[S5]KKKKKFSKA[S5]VGE[S5]AKKGGE-NH2; staple 2-6, 16-20)
- Minimum Inhibitory Concentration (MIC) P. aeruginosa (P. aeruginosa): 64 µg/mL
- Minimum Inhibitory Concentration (MIC) E. coli (E. coli): 64 µg/mL
- Minimum Inhibitory Concentration (MIC) A. baumannii (A. baumannii): 4 µg/mL
- IC50 at 48 hours (in vitro [2]): > 200 µg/mL
- Minimum Inhibitory Concentration (MIC) K. pneumoniae (K. pneumoniae): >64 µg/mL
- Minimum Inhibitory Concentration (MIC) S. aureus (S. aureus): >64 µg/mL

— US20240174723A1, “STAPLED ANTIMICROBIAL PEPTIDES (STAMPS) AND USES THEREOF” (Lytica Therapeutics, Inc., priority 2021, published 2024)
